# Test results taken from ChEMBL document CHEMBL1201861, “Genomics of Drug Sensitity in Cancer screening data, Wellcome Trust Sanger Institute”.
# Assays:
# Experiment in all cases: cells
# TCC-SUP = format: functional, cell-based, Homo sapiens; conditions: Homo sapiens, TCC-SUP;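 further: growth inhibition of TCC-SUP cells, read out with a cell viability assay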
# Description: SANGER: Inhibition of human TCCSUP cell growth in a cell viability assay.
# SBC-5 = format: functional, cell-based, Homo sapiens; conditions: Homo sapiens, SBC-5;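 further: cell viability assay read-out, IC50 is the concentration that inhibits growth of the cells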
# Description: SANGER: Inhibition of human SBC-5 cell growth in a cell viability assay.
# M14 = format: functional, cell-based, Homo sapiens; conditions: Homo sapiens, M14;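 further: growth inhibition of M14 cells, read out with a cell viability assay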
# Description: SANGER: Inhibition of human M14 cell growth in a cell viability assay.
# VMRC-RCZ = format: functional, cell-based; conditions: Homo sapiens;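 further: growth inhibition measured with a cell viability assay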
# Description: SANGER: Inhibition of human VMRC-RCZ cell growth in a cell viability assay.
# SNB-75 = format: functional, cell-based, Homo sapiens; conditions: Homo sapiens, SNB-75;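 further: cell viability assay measuring growth inhibition of human SNB-75 cells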
# Description: SANGER: Inhibition of human SNB75 cell growth in a cell viability assay.
# ES7 = format: functional, cell-based, Homo sapiens; conditions: Homo sapiens, ES7;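 further: growth inhibition of cultured human ES7 cells, read out as cell viability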
# Description: SANGER: Inhibition of human ES7 cell growth in a cell viability assay.
# CHP-212 = format: functional, cell-based, Homo sapiens; conditions: Homo sapiens, CHP-212
# Description: SANGER: Inhibition of human CHP-212 cell growth in a cell viability assay.
# KYSE-150 cell line = format: functional, cell-based, Homo sapiens; conditions: Homo sapiens, KYSE-150;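 further: growth inhibition of human KYSE-150 cells, read out with a cell viability assay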
# Description: SANGER: Inhibition of human KYSE-150 cell growth in a cell viability assay.
# LOX IMVI = format: functional, cell-based; conditions: Homo sapiens
# Description: SANGER: Inhibition of human LOXIMVI cell growth in a cell viability assay.
# SW1990 = format: functional, cell-based, Homo sapiens; conditions: Homo sapiens, SW1990;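 further: cell growth inhibition determined with a viability assay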
# Description: SANGER: Inhibition of human SW1990 cell growth in a cell viability assay.
# HCT-116 = format: functional, cell-based, Homo sapiens; conditions: Homo sapiens, HCT-116
# Description: SANGER: Inhibition of human HCT-116 cell growth in a cell viability assay.
# MZ2-MEL = format: functional, cell-based, Homo sapiens; conditions: Homo sapiens, MZ2-MEL;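 further: growth inhibition of MZ2-MEL cells read out with a cell viability assay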
# Description: SANGER: Inhibition of human MZ2-MEL cell growth in a cell viability assay.
# NCI-H226 = format: functional, cell-based, Homo sapiens; conditions: Homo sapiens, NCI-H226;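 further: cell viability read-out used to gauge growth inhibition of the cells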
# Description: SANGER: Inhibition of human NCI-H226 cell growth in a cell viability assay.
# DMS-114 = format: functional, cell-based, Homo sapiens; conditions: Homo sapiens, DMS-114
# NUGC-3 = format: functional, cell-based, Homo sapiens; conditions: Homo sapiens, NUGC-3;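 further: growth inhibition of human NUGC-3 cells, read out with a cell viability assay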
# Description: SANGER: Inhibition of human NUGC-3 cell growth in a cell viability assay.
# DSH1 = format: functional, cell-based, Homo sapiens; conditions: Homo sapiens, DSH1;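 further: growth inhibition of human DSH1 cells, measured with a cell viability readout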
# Description: SANGER: Inhibition of human DSH1 cell growth in a cell viability assay.
# Lu-65 = format: functional, cell-based; conditions: Homo sapiens;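 further: growth inhibition of Lu-65 cancer cells, read out by a cell viability assay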
# Description: SANGER: Inhibition of human LU-65 cell growth in a cell viability assay.
# SNU1 = format: functional, cell-based; conditions: Homo sapiens;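 further: growth inhibition of human NCI-SNU-1 cells, measured with a cell viability assay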
# Description: SANGER: Inhibition of human NCI-SNU-1 cell growth in a cell viability assay.
# KM12 = format: functional, cell-based, Homo sapiens; conditions: Homo sapiens, KM12;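 further: KM12 cell growth inhibition, read out with a cell viability assay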
# Description: SANGER: Inhibition of human KM12 cell growth in a cell viability assay.
# SW1573 = format: functional, cell-based, Homo sapiens; conditions: Homo sapiens, SW1573;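 further: growth inhibition of SW1573 cells, read out with a cell viability assay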
# Description: SANGER: Inhibition of human SW1573 cell growth in a cell viability assay.
# MHH-PREB-1 = format: functional, cell-based; conditions: Homo sapiens;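 further: cell viability assay measuring inhibition of proliferation of human MHH-PREB-1 cells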
# Description: SANGER: Inhibition of human MHH-PREB-1 cell growth in a cell viability assay.
# ES4 = format: functional, cell-based, Homo sapiens; conditions: Homo sapiens, ES4;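 further: growth inhibition of human ES4 cells, read out by a cell viability assay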
# Description: SANGER: Inhibition of human ES4 cell growth in a cell viability assay.
# NCI-H82 = format: functional, cell-based; conditions: Homo sapiens;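 further: growth inhibition of NCI-H82 cells, measured with a cell viability readout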
# Description: SANGER: Inhibition of human NCI-H82 cell growth in a cell viability assay.
# BV-173 = format: functional, cell-based; conditions: Homo sapiens
# Description: SANGER: Inhibition of human BV-173 cell growth in a cell viability assay.
# MFE-280 = format: functional, cell-based, Homo sapiens; conditions: Homo sapiens, MFE-280;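 further: growth inhibition of MFE-280 cells, determined with a cell viability readout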
# Description: SANGER: Inhibition of human MFE-280 cell growth in a cell viability assay.
# MDA-MB-157 = format: functional, cell-based, Homo sapiens; conditions: Homo sapiens, MDA-MB-157
# Description: SANGER: Inhibition of human MDA-MB-157 cell growth in a cell viability assay.
# no-11 = format: functional, cell-based, Homo sapiens; conditions: Homo sapiens;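 further: growth inhibition of human NO-11 cells, read out with a cell viability assay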
# Description: SANGER: Inhibition of human no-11 cell growth in a cell viability assay.
# SW13 = format: functional, cell-based, Homo sapiens; conditions: Homo sapiens, SW13;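 further: IC50 is inhibition of SW13 cell growth, read out with a cell viability assay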
# Description: SANGER: Inhibition of human SW13 cell growth in a cell viability assay.
# KU812 cell line = format: functional, cell-based; conditions: Homo sapiens;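 further: growth inhibition of KU812 cells, read out with a cell viability assay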
# Description: SANGER: Inhibition of human KU812 cell growth in a cell viability assay.
# VM-CUB-1 = format: functional, cell-based; conditions: Homo sapiens;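 further: cell viability assay measuring growth inhibition of the human VM-CUB-1 cell line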
# Description: SANGER: Inhibition of human VM-CUB-1 cell growth in a cell viability assay.
# LB2241-RCC = format: functional, cell-based, Homo sapiens; conditions: Homo sapiens, LB2241-RCC;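 further: cell viability assay measuring how strongly the cultured human renal carcinoma line is prevented from growing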
# Description: SANGER: Inhibition of human LB2241-RCC cell growth in a cell viability assay.
# SK-MEL-2 = format: functional, cell-based, Homo sapiens; conditions: Homo sapiens, SK-MEL-2;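 further: growth inhibition of human SK-MEL-2 cells measured with a cell viability assay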
# Description: SANGER: Inhibition of human SK-MEL-2 cell growth in a cell viability assay.
# NCI-H661 = format: functional, cell-based, Homo sapiens; conditions: Homo sapiens, NCI-H661;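 further: cell viability assay read-out, IC50 being the concentration that inhibits growth of the cells by half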
# Description: SANGER: Inhibition of human NCI-H661 cell growth in a cell viability assay.
# SJSA-1 = format: functional, cell-based, Homo sapiens; conditions: Homo sapiens, SJSA-1;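 further: growth inhibition of human SJSA-1 cells, read out through a cell viability measurement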
# Description: SANGER: Inhibition of human SJSA-1 cell growth in a cell viability assay.
# NCI-H1623 = format: functional, cell-based, Homo sapiens; conditions: Homo sapiens, NCI-H1623;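 further: cell viability assay used as the read-out for growth inhibition of NCI-H1623 cells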
# Description: SANGER: Inhibition of human NCI-H1623 cell growth in a cell viability assay.
# no-10 = format: functional, cell-based, Homo sapiens; conditions: Homo sapiens;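 further: growth inhibition of no-10 cells, read out with a cell viability assay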
# Description: SANGER: Inhibition of human no-10 cell growth in a cell viability assay.
# SCH = format: functional, cell-based, Homo sapiens; conditions: Homo sapiens, SCH;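 further: growth inhibition of human SCH cells, read out in a cell viability assay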
# Description: SANGER: Inhibition of human SCH cell growth in a cell viability assay.
# BFTC-909 = format: functional, cell-based, Homo sapiens; conditions: Homo sapiens, BFTC-909
# Description: SANGER: Inhibition of human BFTC-909 cell growth in a cell viability assay.
# KALS-1 = format: functional, cell-based, Homo sapiens; conditions: Homo sapiens, KALS-1;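 further: growth inhibition of KALS-1 cells, determined with a cell viability assay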
# Description: SANGER: Inhibition of human KALS-1 cell growth in a cell viability assay.
# HuCCT-1 = format: functional, cell-based, Homo sapiens, HuCCT1; conditions: Homo sapiens, HuCCT-1;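 further: growth inhibition of HuCCT-1 cells, read out by a cell viability assay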
# Description: SANGER: Inhibition of human HuCCT1 cell growth in a cell viability assay.
# JEG-3 = format: functional, cell-based, Homo sapiens; conditions: Homo sapiens, JEG-3;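 further: growth inhibition of human JEG-3 cells, read out with a cell viability assay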
# Description: SANGER: Inhibition of human JEG-3 cell growth in a cell viability assay.
# CHL-1 = format: functional, cell-based, Homo sapiens; conditions: Homo sapiens, CHL-1;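 further: cell growth inhibition, read out with a cell viability assay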
# Description: SANGER: Inhibition of human CHL-1 cell growth in a cell viability assay.
# HN = format: functional, cell-based, Homo sapiens; conditions: Homo sapiens, HN
# Description: SANGER: Inhibition of human HN cell growth in a cell viability assay.
# HT-1080 = format: functional, cell-based, Homo sapiens; conditions: Homo sapiens, HT-1080
# Description: SANGER: Inhibition of human HT-1080 cell growth in a cell viability assay.
# L-428 = format: functional, cell-based; conditions: Homo sapiens
# Description: SANGER: Inhibition of human L-428 cell growth in a cell viability assay.
# CAL-54 = format: functional, cell-based, Homo sapiens; conditions: Homo sapiens, CAL-54;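 further: growth inhibition of CAL-54 cells, read out by a viability measurement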
# Description: SANGER: Inhibition of human CAL-54 cell growth in a cell viability assay.
# OVCAR-3 = format: functional, cell-based, Homo sapiens; conditions: Homo sapiens, OVCAR-3;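 further: growth inhibition of human OVCAR-3 cells, determined by a cell viability assay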
# Description: SANGER: Inhibition of human OVCAR-3 cell growth in a cell viability assay.
# NCI-H1993 = format: functional, cell-based, Homo sapiens; conditions: Homo sapiens, NCI-H1993;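 further: growth inhibition of the cancer cell line, assessed with a cell viability assay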
# Description: SANGER: Inhibition of human NCI-H1993 cell growth in a cell viability assay.
# RCC10RGB = format: functional, cell-based, Homo sapiens; conditions: Homo sapiens, RCC10RGB;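 further: growth inhibition of human RCC10RGB cells, read out by a cell viability assay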
# Description: SANGER: Inhibition of human RCC10RGB cell growth in a cell viability assay.
# C32 = format: functional, cell-based, Homo sapiens; conditions: Homo sapiens, C32;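 further: cell viability assay, with IC50 reflecting inhibition of C32 cell growth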
# Description: SANGER: Inhibition of human C32 cell growth in a cell viability assay.
compound,measurement,setting,value
CC(=O)O[C@@]12CO[C@@H]1C[C@H](O)[C@@]1(C)C(=O)[C@H](O)C3=C(C)[C@@H](OC(=O)[C@H](O)[C@@H](NC(=O)OC(C)(C)C)c4ccccc4)C[C@@](O)([C@@H](OC(=O)c4ccccc4)[C@H]21)C3(C)C [DOCETAXEL],IC50,TCC-SUP,> 10 nM
same,IC50,SBC-5,1.87 nM
same,IC50,M14,1.91 nM
same,IC50,VMRC-RCZ,2.52 nM
same,IC50,SNB-75,3.81 nM
same,IC50,ES7,0.389 nM
same,IC50,CHP-212,0.73 nM
same,IC50,KYSE-150 cell line,4.99 nM
same,IC50,LOX IMVI,1.16 nM
same,IC50,SW1990,> 10 nM
same,IC50,HCT-116,1.81 nM
same,IC50,MZ2-MEL,6.58 nM
same,IC50,NCI-H226,3.68 nM
same,IC50,DMS-114,6.96 nM
same,IC50,NUGC-3,3.08 nM
same,IC50,DSH1,> 10 nM
same,IC50,Lu-65,> 10 nM
same,IC50,SNU1,1.97 nM
same,IC50,KM12,4.08 nM
same,IC50,SW1573,5.54 nM
same,IC50,MHH-PREB-1,1.89 nM
same,IC50,ES4,1.55 nM
same,IC50,NCI-H82,8.22 nM
same,IC50,BV-173,5.3 nM
same,IC50,MFE-280,> 10 nM
same,IC50,MDA-MB-157,> 10 nM
same,IC50,no-11,> 10 nM
same,IC50,SW13,1.69 nM
same,IC50,KU812 cell line,> 10 nM
same,IC50,VM-CUB-1,1.05 nM
same,IC50,LB2241-RCC,5.31 nM
same,IC50,SK-MEL-2,1.7 nM
same,IC50,NCI-H661,> 10 nM
same,IC50,SJSA-1,0.615 nM
same,IC50,NCI-H1623,8.56 nM
same,IC50,no-10,7.88 nM
same,IC50,SCH,8.18 nM
same,IC50,BFTC-909,2.25 nM
same,IC50,KALS-1,1.81 nM
same,IC50,HuCCT-1,5.68 nM
same,IC50,JEG-3,2.82 nM
same,IC50,CHL-1,0.958 nM
same,IC50,HN,0.758 nM
same,IC50,HT-1080,0.501 nM
same,IC50,L-428,> 10 nM
same,IC50,CAL-54,> 10 nM
same,IC50,OVCAR-3,4.07 nM
same,IC50,NCI-H1993,> 10 nM
same,IC50,RCC10RGB,> 10 nM
same,IC50,C32,> 10 nM
O=C(c1cc(Cc2n[nH]c(=O)c3ccccc23)ccc1F)N1CCN(C(=O)C2CC2)CC1 [OLAPARIB],IC50,TCC-SUP,> 5000 nM
same,IC50,SBC-5,> 5000 nM
same,IC50,M14,> 5000 nM
same,IC50,VMRC-RCZ,> 5000 nM
same,IC50,SNB-75,> 5000 nM
same,IC50,ES7,> 5000 nM
same,IC50,CHP-212,> 5000 nM
same,IC50,KYSE-150 cell line,> 5000 nM
same,IC50,LOX IMVI,> 5000 nM
same,IC50,SW1990,> 5000 nM
same,IC50,HCT-116,> 5000 nM
same,IC50,MZ2-MEL,> 5000 nM
same,IC50,NCI-H226,> 5000 nM
same,IC50,DMS-114,> 5000 nM
same,IC50,NUGC-3,> 5000 nM
same,IC50,DSH1,> 5000 nM
same,IC50,Lu-65,> 5000 nM
same,IC50,SNU1,> 5000 nM
same,IC50,KM12,> 5000 nM
same,IC50,SW1573,> 5000 nM
same,IC50,MHH-PREB-1,> 5000 nM
same,IC50,ES4,> 5000 nM
same,IC50,NCI-H82,> 5000 nM
same,IC50,BV-173,> 5000 nM
same,IC50,MFE-280,> 5000 nM
same,IC50,MDA-MB-157,> 5000 nM
same,IC50,no-11,> 5000 nM
same,IC50,SW13,> 5000 nM
same,IC50,KU812 cell line,> 5000 nM
same,IC50,VM-CUB-1,> 5000 nM
same,IC50,LB2241-RCC,> 5000 nM
same,IC50,SK-MEL-2,> 5000 nM
same,IC50,NCI-H661,> 5000 nM
same,IC50,SJSA-1,> 5000 nM
same,IC50,NCI-H1623,> 5000 nM
same,IC50,no-10,> 5000 nM
same,IC50,SCH,> 5000 nM
same,IC50,BFTC-909,> 5000 nM
same,IC50,KALS-1,> 5000 nM
same,IC50,HuCCT-1,> 5000 nM
same,IC50,JEG-3,> 5000 nM
same,IC50,CHL-1,> 5000 nM
same,IC50,HN,> 5000 nM
same,IC50,HT-1080,> 5000 nM
same,IC50,L-428,> 5000 nM
same,IC50,CAL-54,> 5000 nM
same,IC50,OVCAR-3,> 5000 nM
same,IC50,NCI-H1993,> 5000 nM
same,IC50,RCC10RGB,> 5000 nM
same,IC50,C32,> 5000 nM
